Test results: patent US20040191169A1, “Methods of protection from toxicity of alpha emitting elements during radioimmunotherapy” (priority 2003, published 2004)

What was measured:
[1] = Free metal scavenging with DMPS or DMSA: tissue ^213Bi and ^221Fr activity after ^225Ac labeled HuM195 injection; format: in vivo, mice; settings: for renal ^213Bi activity: chelator in drinking water, mean (SE); for renal ^221Fr activity versus untreated controls: at either 6 hours or 72 hours post-injection
Experimental: (§1) The mice were anesthetized and then injected intravenously in the retro-orbital venous plexus with 0.5 μCi of either ^225Ac labeled HuM195 for chelation, diuresis and competitive metal blockade experiments or of ^225Ac labeled SJ25C1 for tumor burden experiments. The injected volume was 100 μl. In order to detect adequate numbers of disintegrations in tissues by use of the gamma-counter, the injected doses of ^225Ac nanogenerator, i.e., ˜30 μCi/kg, are much higher than the doses for human clinical trials with these adjuvants.
Animals received either 2,3-dimercapto-1-propanesulfonic acid (DMPS; Sigma, St. Louis, Mo.) or meso-2,3-dimercaptosuccinic acid (DMSA; Sigma, St. Louis, Mo.) in drinking water (1.2 mg/ml and 1.5 mg/ml, respectively), starting one day before injection with ^225Ac nanogenerator and continued until the animals were sacrificed. The control animals received regular drinking water. Animals (n=5 per group) were sacrificed at 6 and 72 hours post-injection by carbon-dioxide asphyxiation.
Samples of blood taken by cardiac puncture, of kidneys, of liver and of small intestine were removed. The organs were washed in distilled water, blotted dry on gauze, weighed, and the activity of ^221Fr (185-250 keV window) and ^213Bi (360-480 keV window) was measured using a gamma counter (COBRA II, Packard Instrument Company, Meriden, Conn.). Samples of the injectate (100 μl) were used as decay correction standards. Adjustment was made for the small percentage of bismuth activity that counted in the francium activity window. Percentage injected dose of ^225Ac, ^221Fr and ^213Bi per gram of tissue weight (% ID/g) was calculated for each animal at the time of sacrifice, using the equation (78):
A2(0)=[A2−A2(eq)·(e^−λ2t−e^−λ1t)]·e^λ2t
where λ1 and λ2 are the decay constants of Ac and Bi, respectively. The mean % ID/g was determined for each experimental group.

[2] = cited from earlier work
[3] = Diuretic therapy, alone or combined with DMPS: renal ^221Fr and ^213Bi activity after ^225Ac labeled HuM195 injection; format: in vivo, mice; settings: diuretic alone i.p.; 24 hours post-injection
Experimental: as §1
Mice were randomized to furosemide treatment, chlorthiazide (CTZ) treatment or no treatment(control)groups (5 animals per group). Furosemide and CTZ were administered intraperitoneally (i.p.). The loading doses of furosemide and CTZ were 250 mg/kg and 750 mg/kg respectively, administered one hour before ^225Ac nanogeneratorinjection. The maintenance doses were 100 mg/kg and 300 mg/kg, respectively, administered 12 hours and 24 hours after the loading dose. The controls were injected with an equal volume of saline (vehicle).
Alternatively, mice received DMPS (1.2 mg/ml in drinking water) and either furosemide or CTZ i.p using the same dose schedule as above. The controls received regular drinking water and were injected with an equal volume of saline. The animals were sacrificed at 24 hours post-injection with the labeled antibody and the mean activity (% ID/g) of ^225Ac, ^221Fr and ^213Bi in blood and kidneys was calculated for each experimental group, as described above.

CD33 antigen = CD33 antigen (Homo sapiens, UniProt P20138); settings: on the order of; cited from earlier work
[4] = Competitive metal blockade with bismuth subnitrate: renal ^213Bi and ^221Fr activity after ^225Ac labeled HuM195 injection; format: in vivo, mice
Experimental: as §1
Mice (5 per group) were injected i.p. with 200 μl of 1% bismuth subnitrate (BSN; Sigma, St. Louis, Mo.) suspension (100 mg/kg) or an equal volume of saline (controls) 4 hours before ^225Ac nanogenerator injection. These animals were sacrificed at 6 hours post-injection with the ^225Ac nanogenerator. Alternatively, mice were injected i.p. with 200 μl of 1% BSN suspension, 4 hours before and 8 and 20 hours after ^225Ac nanogenerator injection (n=5) or an equal volume of saline (n=5). These animals were sacrificed 24 hours after ^225Ac nanogenerator injection. The mean % ID/g of ^225Ac, ^221Fr and ^213Bi in blood and kidneys at sacrifice-time was calculated for each experimental group.

[5] = In vivo biodistribution of [Ac]Hum195 at 24 hours in DMPS-treated and untreated monkeys; design: species or system cynomolgus monkeys; settings: one treated versus one untreated monkey, DMPS in water 24 hours plus one i.v. dose 90 min before sacrifice
Experimental: Two cynomolgus monkeys weighing about 7 kg were injected with 25 μCi of Ac-225 nanogenerators on HuM195 antibodies. One monkey received water and the other received DMPS in water for 24 hours and one dose of DMPS intravenously 90 min before sacrifice. At 24 hours the two monkeys were sacrificed and the kidneys examined for Bi-213 daughters. A 70% reduction in Bi-213 in the kidneys of the treated monkey was found (FIG. 7).

[6] = Tumor burden experiment: ^213Bi activity in kidneys and femurs after ^225Ac labeled SJ25C1, disseminated human Daudi lymphoma; format: in vivo, SCID mice
Experimental: Disseminated human Daudi lymphoma (84) treated with ^225Ac labeled anti-CD19, was used as the model system. SCID mice, 10-12 weeks old, were randomized to “low tumor burden” or 7 days growth of tumor, “high tumor burden” or 30 days growth of tumor or “high tumor burden+DMPS” group or 30 days growth of tumor and treated with 1.2 mg/ml DMPS in drinking water, starting one day before injection with ^225Ac nanogenerator. All mice were injected intravenously with 5×10^6 Daudi lymphoma cells in 0.1 ml phosphate buffered saline (PBS). The “low burden” animals were injected with the tumor cells 23 days after the “high burden” ones. The animals were checked daily for the onset of hind-leg paralysis. 30 days after injection of tumor cells in the “high burden” animals and 7 days after injection for the “low burden” group, all animals were injected retro-orbitally with 0.5 μCi of ^225Ac labeled SJ25C1 in 100 μl.
The animals (5 per group) were sacrificed at 24 hours post-injection and the mean ^225Ac, ^221Fr and ^213Bi activity (% ID/g) in blood, femurs and kidneys was calculated for each experimental group. The % of human-CD20 positive cells in the femoral bone marrow was estimated in one representative animal from the “high and low burden” groups by flow cytometric staining with phycoerythrin (PE)-conjugated anti-human CD20 (BD, San Jose, Calif.) and compared to that of a non tumor-bearing mouse of the same strain.

CD33 antigen, sequence (P20138 18-364): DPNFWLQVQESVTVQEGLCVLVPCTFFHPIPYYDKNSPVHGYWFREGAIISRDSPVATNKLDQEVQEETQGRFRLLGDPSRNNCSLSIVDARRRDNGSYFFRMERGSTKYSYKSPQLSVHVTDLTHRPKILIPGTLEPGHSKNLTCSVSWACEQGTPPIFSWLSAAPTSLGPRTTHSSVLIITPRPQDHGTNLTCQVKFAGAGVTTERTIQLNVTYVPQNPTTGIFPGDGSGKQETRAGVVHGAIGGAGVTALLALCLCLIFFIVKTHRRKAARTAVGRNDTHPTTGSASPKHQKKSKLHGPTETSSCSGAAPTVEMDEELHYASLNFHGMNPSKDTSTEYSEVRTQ

O=C(O)[C@@H](S)[C@@H](S)C(=O)O [DMSA, meso-2,3-dimercaptosuccinic acid]
mean blood ^213Bi activity ([1]; 6 hours post-injection): 5.8±0.5 % ID/g
renal ^213Bi activity ([1]; 6 hours post-injection): 66.0±1.9 % ID/g
mean blood ^213Bi activity ([1]; 72 hours post-injection): 4.8±0.6 % ID/g
renal ^213Bi activity ([1]; 72 hours post-injection): 41.4±7.3 % ID/g
renal ^221Fr activity versus untreated controls [1]: not significantly different
extent of non-protein sulfhydryl formation in human plasma [2]: 8%

NS(=O)(=O)c1cc(C(=O)O)c(NCc2ccco2)cc1Cl [furosemide]
24 hour renal ^213Bi activity [3]: 18.3±0.6 % ID/g
24 hour renal ^221Fr activity [3]: 11.8±0.4 % ID/g

HuM195: humanized anti-CD33 IgG1 monoclonal antibody
affinity (CD33 antigen): 10^−9 to 10^−10 M

O=[N+]([O-])[O-].O=[N+]([O-])[O-].O=[N+]([O-])[O-].O=[N+]([O-])[O-].[Bi+3].[Bi+3].[Bi+3].[Bi+3].[Bi+3].[O-2].[OH-].[OH-].[OH-].[OH-].[OH-].[OH-].[OH-].[OH-].[OH-] [BSN, bismuth subnitrate]
renal ^213Bi activity ([4]; 6 hours post-injection, BSN 100 mg/kg i.p. 4 hours before): 46.1±1.4 % ID/g
renal ^213Bi activity ([4]; 24 hours post-injection, BSN i.p. 4 hours before and 8 and 20 hours after): 48.2±0.6 % ID/g
renal ^221Fr activity ([4]; at either time-point (6 hours, 24 hours)): unaltered

O=S(=O)(O)CC(S)CS (stereo not shown) [DMPS, 2,3-dimercapto-1-propanesulfonic acid]
mean blood ^213Bi activity ([1]; 6 hours post-injection): 9.2±0.5 % ID/g
renal ^213Bi activity ([1]; 6 hours post-injection): 38.6±5.5 % ID/g
mean blood ^213Bi activity ([1]; 72 hours post-injection): 5.5±0.1 % ID/g
renal ^213Bi activity ([1]; 72 hours post-injection): 21.7±2.1 % ID/g
renal ^221Fr activity versus untreated controls [1]: not significantly different
relative effectiveness in reducing the renal ^213Bi activity ([1]; comparison between chelators): significantly more effective than DMSA
reduction in Bi-213 in the kidneys [5]: 70%
kidney to femur activity ratio for ^213Bi ([6]; DMPS treated animals bearing the target tumor): significantly lower
renal ^213Bi activity ([6]; high tumor burden + DMPS 1.2 mg/ml in drinking water, 24 hours post-injection): 16.7±2.7 % ID/g
femur ^213Bi activity ([6]; high tumor burden + DMPS, 24 hours post-injection): 4.8±0.6 % ID/g
extent of non-protein sulfhydryl formation in human plasma [2]: 37%

NS(=O)(=O)c1cc2c(cc1Cl)N=CNS2(=O)=O [CTZ, chlorthiazide]
24 hour renal ^213Bi activity [3]: 18.6±1.6 % ID/g
24 hour renal ^221Fr activity [3]: 9.7±0.4 % ID/g
